Laboratory results: ChEMBL document CHEMBL1201862, “PubChem BioAssay data set” (2004)
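Method: 48-hour compound exposure of cells in 96-well plates, five concentrations, linear interpolation of endpoints. GI50 marks 50% less growth.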 Activity calls are given as the source filed them. Rule as the data show it: active = GI50 up to about 1.1 µM and inactive = higher.

Assays:
Assay in all cases: inhibition of tumour cell growth, NCI panel, 48 h
RXF 631 = tested on: RXF 631
MDA-N = tested on: MDA-N
MDA-MB-231 = tested on: MDA-MB-231
PC-3 = tested on: PC-3
MDA-MB-435 = tested on: MDA-MB-435
Hs-578T = tested on: Hs-578T
BT-549 = tested on: BT-549
T47D = tested on: T47D

Measured: GI50

Cc1ccc(NP(=O)(Oc2ccccc2)N(CCCl)CCCl)cc1 (stereo not given)
inactive: RXF 631 10 µM

Cc1ccc([N+](=O)[O-])cc1S(=O)(=O)Nc1ccc(C2=NNC(c3ccccc3O)C2)cc1 (stereo not given)
inactive: MDA-N 28.6 µM | MDA-MB-231 26.7 µM | PC-3 29.4 µM | MDA-MB-435 22.1 µM | Hs-578T 43.7 µM | BT-549 19.7 µM | T47D 17.3 µM

CC1(C(=O)O)CCC(C(=O)O)C(C)(C)O1 (stereo not given)
inactive: MDA-N > 100 µM | PC-3 > 100 µM | MDA-MB-435 > 100 µM | Hs-578T > 100 µM | BT-549 > 100 µM | T47D > 100 µM

COC(Cc1cc(C(O)(c2ccc(C(C)(C)C)cc2)c2cc(CC(OC)(c3cc(C(OC)(c4ccc(C(C)(C)C)cc4)c4ccc(C(C)(C)C)cc4)c(C)cc3C)c3cc(C(OC)(c4ccc(C(C)(C)C)cc4)c4ccc(C(C)(C)C)cc4)c(C)cc3C)c(C)cc2C)c(C)cc1C)(c1cc(C(OC)(c2ccc(C(C)(C)C)cc2)c2ccc(C(C)(C)C)cc2)c(C)cc1C)c1cc(C(OC)(c2ccc(C(C)(C)C)cc2)c2ccc(C(C)(C)C)cc2)c(C)cc1C
inactive: MDA-N > 75 µM | MDA-MB-231 > 75 µM | PC-3 > 75 µM | MDA-MB-435 > 75 µM | Hs-578T > 75 µM | BT-549 > 75 µM | T47D > 75 µM

Cc1cc(C)c(S(=O)(=O)N(CCCCCN)OCCCN)c(C)c1
inactive: MDA-N 16.7 µM | MDA-MB-231 31.7 µM | PC-3 14.7 µM | MDA-MB-435 18.2 µM | Hs-578T 22 µM | BT-549 17.4 µM | T47D 20.6 µM

CC(=O)c1c(-c2ccco2)c(C#N)c(=S)n(C2OC(CO)C(O)C(O)C2O)c1C (stereo not given)
inactive: MDA-N 92.3 µM | MDA-MB-231 > 100 µM | PC-3 > 100 µM | MDA-MB-435 36.4 µM | Hs-578T 64.9 µM | BT-549 > 100 µM | T47D 35.5 µM
